Test results reported in patent US9303042B2, “Triazolothienopyrimidine compound inhibitors of urea transporters and methods of using inhibitors” (The Regents of the University of California, priority 2012, dated 2016).
Where two headings read alike, the source gives them in different places.

Columns and labels:
UT-B = target: T1, UT-B (Mus musculus, UniProt Q8VHL0); experiment: Erythrocyte lysis assay of UT-B inhibition; type: cell-based; design: Screening was performed using mouse erythrocytes, which strongly express UT-B; endogenous in cells; host or cells: erythrocytes in whole blood of wild-type CD1 mice
T1 sequence (Q8VHL0 1-384): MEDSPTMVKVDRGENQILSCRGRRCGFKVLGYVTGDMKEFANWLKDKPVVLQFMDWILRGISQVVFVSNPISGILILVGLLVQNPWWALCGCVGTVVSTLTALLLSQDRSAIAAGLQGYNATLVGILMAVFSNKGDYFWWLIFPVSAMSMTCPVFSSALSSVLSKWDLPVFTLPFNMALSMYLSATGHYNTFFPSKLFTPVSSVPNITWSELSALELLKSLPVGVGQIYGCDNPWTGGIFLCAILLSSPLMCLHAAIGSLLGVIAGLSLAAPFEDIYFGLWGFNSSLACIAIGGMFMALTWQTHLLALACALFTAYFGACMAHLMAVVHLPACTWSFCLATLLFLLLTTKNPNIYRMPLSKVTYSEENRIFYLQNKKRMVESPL
Description: Screening was performed using mouse erythrocytes, which strongly express UT-B and are highly water permeable because the cells also express aquaporin-1 (AQP1) water channels. The screening method involved assay of erythrocyte lysis in response to a large, outwardly directed gradient of acetamide, a urea analog that is transported efficiently by UT-B. A large, outwardly directed gradient of acetamide causes transient cell swelling, but little cell lysis, because UT-B-facilitated acetamide efflux limits water influx (see FIG. 1A). UT-B inhibition prevents acetamide efflux, allowing unopposed cell swelling and consequent cell lysis, which was recorded by reduced near-infrared light absorption at 710 nm.
Primary screening was done using a collection of 100,000 diverse, drug-like compounds from commercial sources (ChemDiv, San Diego, Calif.; Asinex, Winston-Salem, N.C.). […] Vigorous mixing was achieved by repeated pipetting. Erythrocyte lysis was quantified by absorbance at 710 nm wavelength, made within 5 min after hypo-osmolar shock. […] For analysis of structure-activity relationships >900 commercially available analogs (ChemDiv and Asinex) were tested.

[1] = In vitro metabolic stability in hepatic microsomes; type: in vitro ADME, rat; conditions: for % Remaining: parent molecule after 30 min incubation with rat liver microsomes
Description: Compounds, each at 5 μM, were incubated for specified times at 37° C. with rat liver microsomes (1 mg protein/ml; Sigma-Aldrich, St. Louis, Mo.) in potassium phosphate buffer (100 mM) containing 1 mM NADPH. The mixture was then chilled on ice, and 0.5 ml of ice-cold ethyl acetate was added.

[2] = Table 1, commercially available analogues, erythrocyte lysis assay, read-out: IC50
[3] = Table 2, synthesized inhibitors, red blood cell lysis assay (n = 3), single-site saturation model, read-out: IC50

Compound	IC50 (UT-B; [2]) [µM]	other results
Cc1ccc(S(=O)(=O)c2nnn3c2nc(NCCCOC(C)C)c2sccc23)cc1C [Compound 2ax, {3-[3,4-dimethyl-benzenesulfonyl]-thieno[2,3-e][1,2,3]triazolo[1,5-a]pyrimidin-5-yl}-3-(1-methylethoxyl)propyl-amine]	2.48	
Cc1ccc(C)c(S(=O)(=O)c2nnn3c2nc(NCc2ccco2)c2sccc23)c1 [Compound 2cs, furan-2-ylmethyl-[3-(2,5-dimethyl-benzenesulfonyl)-thieno[2,3-e][1,2,3]triazolo[1,5-a]pyrimidin-5-yl]-amine]	2.66	
Cc1ccc(S(=O)(=O)c2nnn3c2nc(NC2CCCCC2)c2sccc23)cc1C [Compound 2bb]	8.19	
COCCNc1nc2c(S(=O)(=O)c3ccc(C)c(C)c3)nnn2c2ccsc12 [Compound 2ba, {3-[3,4-dimethyl-benzenesulfonyl]-thieno[2,3-e][1,2,3]triazolo[1,5-a]pyrimidin-5-yl}-2-methoxyethyl-amine]	2.5	
O=S(=O)(c1ccc(C(F)(F)F)cc1)c1nnn2c1nc(NCc1cccs1)c1sccc12 [Compound 3c, Thiophen-2-ylmethyl-[3-(4-trifluoromethyl-benzenesulfonyl)-thieno[2,3-e][1,2,3]triazolo[1,5-a]pyrimidin-5-yl]-amine]		metabolic stability (in words) ([1]; hepatic microsomes): improved metabolic stability; % Remaining [1]: 99%; IC50 (UT-B; [3]): 0.537 µM
CCc1ccc(S(=O)(=O)c2nnn3c2nc(NC2CCCC2)c2sccc23)cc1 [Compound 2bz]	1.54	
CCc1ccc(S(=O)(=O)c2nnn3c2nc(NCC2CCCO2)c2sccc23)cc1 (centres unmarked) [Compound 2bu, tetrahydrofuran-2-ylmethyl-[3-(4-ethyl-benzenesulfonyl)-thieno[2,3-e][1,2,3]triazolo[1,5-a]pyrimidin-5-yl]-amine]	0.891	% Remaining after 10 min incubation with liver microsomes ([1]; 10 min, liver microsomes, NADPH, compound 5 μM): 26%
Cc1ccc(S(=O)(=O)c2nnn3c2nc(NCC2CCCO2)c2sccc23)cc1 (centres unmarked) [Compound 2ae, tetrahydrofuran-2-ylmethyl-[3-(4-methyl-benzenesulfonyl)-thieno[2,3-e][1,2,3]triazolo[1,5-a]pyrimidin-5-yl]-amine]	5.74	
CC(C)c1ccc(S(=O)(=O)c2nnn3c2nc(NCc2cccc4ccccc24)c2sccc23)cc1 [Compound 3j, [3-(4-Isopropyl-benzenesulfonyl)-thieno[2,3-e][1,2,3]triazolo[1,5-a]pyrimidin-5-yl]-naphthalen-1-ylmethyl-amine]		% Remaining [1]: 45%; IC50 (UT-B; [3]): > 2.5 µM
CCOCCCNc1nc2c(S(=O)(=O)c3cc(C)ccc3C)nnn2c2ccsc12 [Compound 2ck, {3-[2,5-dimethyl-benzenesulfonyl]-thieno[2,3-e][1,2,3]triazolo[1,5-a]pyrimidin-5-yl}-3-ethoxypropyl-amine]	9.85	
Cc1ccc(C)c(S(=O)(=O)c2nnn3c2nc(NCc2ccccc2)c2sccc23)c1 [Compound 2cq, [3-(2,5-dimethyl-benzenesulfonyl)-thieno[2,3-e][1,2,3]triazolo[1,5-a]pyrimidin-5-yl]-benzyl-amine]	1.65	
Cc1ccc(C)c(S(=O)(=O)c2nnn3c2nc(N2CCC(C(N)=O)CC2)c2sccc23)c1 [Compound 2ci]	3.34	
CCc1ccc(S(=O)(=O)c2nnn3c2nc(N2CCN(CC)CC2)c2sccc23)cc1 [Compound 2cd]	11.9	
NC(=O)C1CCN(c2nc3c(S(=O)(=O)c4cccc(Cl)c4)nnn3c3ccsc23)CC1 [Compound 2cv]	3.14	
Cc1ccc(S(=O)(=O)c2nnn3c2nc(N2CCC(C(N)=O)CC2)c2sccc23)cc1C [Compound 2aq]	2.12	
COCCNc1nc2c(S(=O)(=O)c3ccc(C)cc3)nnn2c2ccsc12 [Compound 2ai, {3-[4-methyl-benzenesulfonyl]-thieno[2,3-e][1,2,3]triazolo[1,5-a]pyrimidin-5-yl}-2-methoxyethyl-amine]	2.87	
Cc1ccc(C)c(S(=O)(=O)c2nnn3c2nc(NCCCOC(C)C)c2sccc23)c1 [Compound 2cl, {3-[2,5-dimethyl-benzenesulfonyl]-thieno[2,3-e][1,2,3]triazolo[1,5-a]pyrimidin-5-yl}-3-(1-methylethoxyl)propyl-amine]	2.06	
Cc1ccc(C)c(S(=O)(=O)c2nnn3c2nc(NC(C)c2ccccc2)c2sccc23)c1 (centres unmarked) [Compound 2cm, [3-(2,5-dimethyl-benzenesulfonyl)-thieno[2,3-e][1,2,3]triazolo[1,5-a]pyrimidin-5-yl]-(1-phenyl-1-methyl)methyl-amine]	0.702	
CCc1ccc(S(=O)(=O)c2nnn3c2nc(NCCN(C)C)c2sccc23)cc1 [Compound 2ch]	8.46	

Compound	IC50 (UT-B; [2]) [µM]	other results
COCCCNc1nc2c(S(=O)(=O)c3ccc(Cl)cc3)nnn2c2ccsc12 [Compound 2bj, {3-[4-chloro-benzenesulfonyl]-thieno[2,3-e][1,2,3]triazolo[1,5-a]pyrimidin-5-yl}-3-methoxypropyl-amine]	2.31	
CCN1CCN(c2nc3c(S(=O)(=O)c4ccc(C)cc4)nnn3c3ccsc23)CC1 [Compound 2ak]	7.88	
Cc1ccc(S(=O)(=O)c2nnn3c2nc(NC(C)C)c2sccc23)cc1C [Compound 2av]	2.19	
COc1cccc(CNc2nc3c(S(=O)(=O)c4ccc(C)c(C)c4)nnn3c3ccsc23)c1 [Compound 2ay, [3-(3,4-dimethyl-benzenesulfonyl)-thieno[2,3-e][1,2,3]triazolo[1,5-a]pyrimidin-5-yl]-(3-methoxy-benzyl)-amine]	3.77	
Cc1ccc(C)c(S(=O)(=O)c2nnn3c2nc(NCc2ccc(F)cc2)c2sccc23)c1 [Compound 2cp, [3-(2,5-dimethyl-benzenesulfonyl)-thieno[2,3-e][1,2,3]triazolo[1,5-a]pyrimidin-5-yl]-(4-fluoro-benzyl)-amine]	0.671	
Cc1ccc(S(=O)(=O)c2nnn3c2nc(NC(C)c2ccccc2)c2sccc23)cc1 (centres unmarked) [Compound 2ag, [3-(4-methyl-benzenesulfonyl)-thieno[2,3-e][1,2,3]triazolo[1,5-a]pyrimidin-5-yl]-(1-phenyl-1-methyl)methyl-amine]	11.2	
CCc1ccc(S(=O)(=O)c2nnn3c2nc(N2CCN(C)CC2)c2sccc23)cc1 [Compound 2cc]	0.59	
COc1cccc(CNc2nc3c(S(=O)(=O)c4ccc(C)cc4)nnn3c3ccsc23)c1 [Compound 2ah, [3-(4-methyl-benzenesulfonyl)-thieno[2,3-e][1,2,3]triazolo[1,5-a]pyrimidin-5-yl]-(3-methoxy-benzyl)-amine]	2.75	
Cc1ccc(S(=O)(=O)c2nnn3c2nc(NCCCOC(C)C)c2sccc23)cc1 [Compound 2af, {3-[4-methyl-benzenesulfonyl]-thieno[2,3-e][1,2,3]triazolo[1,5-a]pyrimidin-5-yl}-3-(1-methylethoxyl)propyl-amine]	11.7	
NC(=O)C1CCN(c2nc3c(S(=O)(=O)c4ccccc4)nnn3c3ccsc23)CC1 [Compound 2aa]	7.66	
O=S(=O)(c1cccc(Cl)c1)c1nnn2c1nc(NCc1cccs1)c1sccc12 [Compound 2cw, {3-[3-chloro-benzenesulfonyl]-thieno[2,3-e][1,2,3]triazolo[1,5-a]pyrimidin-5-yl}-thiophen-2-ylmethyl-amine]	2.08	
Cc1ccc(S(=O)(=O)c2nnn3c2nc(NCc2ccc(F)cc2)c2sccc23)cc1C [Compound 2be, [3-(3,4-dimethyl-benzenesulfonyl)-thieno[2,3-e][1,2,3]triazolo[1,5-a]pyrimidin-5-yl]-(4-fluoro-benzyl)-amine]	5.64	
CC(C)c1ccc(S(=O)(=O)c2nnn3c2nc(NCC2CCCO2)c2sccc23)cc1 (centres unmarked) [Compound 2bk, tetrahydrofuran-2-ylmethyl-[3-(4-isopropyl-benzenesulfonyl)-thieno[2,3-e][1,2,3]triazolo[1,5-a]pyrimidin-5-yl]-amine]	2.66	
Cc1ccc(S(=O)(=O)c2nnn3c2nc(NC2CCCC2)c2sccc23)cc1 [Compound 2al]	6.38	
Cc1ccc(S(=O)(=O)c2nnn3c2nc(NCc2ccco2)c2sccc23)cc1 [Compound 2ac, furan-2-ylmethyl-[3-(4-methyl-benzenesulfonyl)-thieno[2,3-e][1,2,3]triazolo[1,5-a]pyrimidin-5-yl]-amine]	2.15	
CCN(CC)c1nc2c(S(=O)(=O)c3ccc(C)c(C)c3)nnn2c2ccsc12 [Compound 2ap]	2.49	
CCc1ccc(S(=O)(=O)c2nnn3c2nc(N2CCOCC2)c2sccc23)cc1 [Compound 2bq]		IC50 (UT-B): 5.71 µM
CCOCCCNc1nc2c(S(=O)(=O)c3ccc(C(C)C)cc3)nnn2c2ccsc12 [Compound 2bl, {3-[4-isopropyl-benzenesulfonyl]-thieno[2,3-e][1,2,3]triazolo[1,5-a]pyrimidin-5-yl}-3-ethoxylpropyl-amine]	4.08	
